The molecules below were run against myeloperoxidase (MPO) (Homo sapiens (Human), UniProt P05164) (assay: MPO chlorination assay (APF)). Conditions: MPO chlorination assay, ranges given; read-out: MPO chlorination assay IC50.
Format: biochemical
Description: MPO chlorination activity was measured in 100 mM KPi (pH 7.4) by utilizing the non-fluorescent reagent Aminophenyl fluorescein (APF, Invitrogen catalog #A36003). APF is cleaved by (—OCl) to yield the fluorescent compound fluorescein. Reactions were carried out in 50 μL total volume by adding a 25 μL mixture of 200 pM myeloperoxidase and 120 mM NaCl to 100 nL inhibitor in 100% DMSO in a 384 well, non-binding surface clear bottom plate (CORNING® #3655). Enzyme, inhibitor, and chloride were preincubated for ten minutes at rt.
After the ten minute preincubation, 25 μL of an APF mixture containing […], 120 mM NaCl and 10 μM H2O2 was added to the plate using the internal dispensing system of a Hammatsu FDSS 6000. Kinetic determinations were carried out immediately on the FDSS 6000 (3 minute kinetic read, 1 read every second, ex: 485 nm, em: 535 nm). IC50 values for inhibitors were calculated by taking the slope of the linear portion of the kinetic measurement (20 seconds to ˜80-120 secs). […]
[formula] where A=minimal Y value (activity level of inhibited sample), B=maximal Y value (activity level of uninhibited sample), C=Log IC50, D=Hill Slope, x=concentration of inhibitor. EPX Bromination Assay

myeloperoxidase (MPO), sequence (P05164 49-745): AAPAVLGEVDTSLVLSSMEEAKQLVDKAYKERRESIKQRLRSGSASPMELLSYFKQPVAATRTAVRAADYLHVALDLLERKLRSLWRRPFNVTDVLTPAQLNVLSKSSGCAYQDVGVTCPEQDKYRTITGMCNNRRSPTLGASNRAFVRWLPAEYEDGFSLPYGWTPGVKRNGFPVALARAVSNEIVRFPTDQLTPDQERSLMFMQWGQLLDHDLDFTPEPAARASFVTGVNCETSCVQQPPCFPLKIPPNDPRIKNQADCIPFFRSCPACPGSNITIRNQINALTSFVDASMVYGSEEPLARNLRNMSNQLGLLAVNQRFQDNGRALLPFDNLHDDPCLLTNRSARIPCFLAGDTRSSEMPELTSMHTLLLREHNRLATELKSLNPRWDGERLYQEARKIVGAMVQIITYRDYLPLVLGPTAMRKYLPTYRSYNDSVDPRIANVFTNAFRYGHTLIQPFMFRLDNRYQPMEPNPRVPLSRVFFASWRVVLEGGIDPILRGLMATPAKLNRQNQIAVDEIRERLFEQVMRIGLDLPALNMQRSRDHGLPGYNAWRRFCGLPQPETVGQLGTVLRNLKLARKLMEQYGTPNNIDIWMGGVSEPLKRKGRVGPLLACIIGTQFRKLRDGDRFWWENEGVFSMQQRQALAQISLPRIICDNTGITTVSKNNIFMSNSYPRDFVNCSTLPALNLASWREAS

SMILES	IC50
Nc1cc(SCc2ccccc2)c2nn[nH]c2n1 [Example 1, 7-(Benzylthio)-3H-[1,2,3]triazolo[4,5-b]pyridin-5-amine]	≤ 60 nM
Nc1cc(SCc2ccccc2Cl)c2nn[nH]c2n1 [Example 4, 7-((2-chlorobenzyl)thio)-3H-[1,2,3]triazolo [4,5-b]pyridin-5-amine]	≤ 60 nM
Nc1cc(SCc2ccccc2C(F)(F)F)c2nn[nH]c2n1 [Example 5, 7-((2-(trifluoromethyl)benzyl)thio)-3H-[1,2,3] triazolo[4,5-b]pyridin-5-amine]	≤ 60 nM
Nc1cc(SCc2cccc(F)c2)c2nn[nH]c2n1 [Example 6, 7-((3-fluorobenzyl)thio)-3H-[1,2,3]triazolo [4,5-b]pyridin-5-amine]	≤ 60 nM
Nc1cc(SCc2ccc(Cl)cc2)c2nn[nH]c2n1 [Example 8, 7-((4-chlorobenzyl)thio)-3H-[1,2,3]triazolo [4,5-b]pyridin-5-amine]	≤ 60 nM
COc1ccc(CSc2cc(N)nc3[nH]nnc23)cc1 [Example 9, 7-((4-methoxybenzyl)thio)-3H-[1,2,3]triazolo [4,5-b]pyridin-5-amine]	≤ 60 nM
Nc1cc(SCc2c(F)cccc2F)c2nn[nH]c2n1 [Example 10, 7-((2,6-Difluorobenzyl)thio)-3H-[1,2,3]triazolo[4,5-b]pyridin-5-amine]	≤ 60 nM
N#Cc1ccc(-n2cccn2)cc1CSc1cc(N)nc2[nH]nnc12 [Example 12, 2-(((5-Amino-3H-[1,2,3]triazolo[4,5-b]pyridin-7-yl)thio)methyl)-4-(1H-pyrazol-1-yl)benzonitrile]	≤ 60 nM
Nc1cc(SC(CCCNCc2ccccc2)c2ccccc2)c2nn[nH]c2n1 (centres unmarked) [Example 14, 7-((4-(Benzylamino)-1-phenylbutyl)thio)-3H-[1,2,3]triazolo[4,5-b]pyridin-5-amine]	≤ 60 nM
Nc1cc(SCc2cccc(CN3CCCC3)c2)c2nn[nH]c2n1 [Example 15, 7-((3-(Pyrrolidin-1-ylmethyl)benzyl)thio)-3H-[1,2,3]triazolo[4,5-b]pyridin-5-amine]	≤ 60 nM
Cn1nc(C2CC2)c(F)c1CSc1cc(N)nc2[nH]nnc12 [Example 16, 7-(((3-Cyclopropyl-4-fluoro-1-methyl-1H-pyrazol-5-yl)methyl)thio)-3H-[1,2,3]triazolo[4,5-b]pyridin-5-amine]	60 to 200 nM
Cn1nc(-c2ccccc2)c(F)c1CSc1cc(N)nc2[nH]nnc12 [Example 17, 7-(((4-Fluoro-1-methyl-3-phenyl-1H-pyrazol-5-yl)methyl)thio)-3H-[1,2,3]triazolo[4,5-b]pyridin-5-amine]	≤ 60 nM
CS(=O)(=O)c1cc(Cl)ccc1CSc1cc(N)nc2[nH]nnc12 [Example 18, 7-((4-chloro-2-(methylsulfonyl)benzyl)thio)-3H-[1,2,3]triazolo[4,5-b]pyridin-5-amine]	≤ 60 nM
Nc1cc(SCc2cc(F)ccc2F)c2nn[nH]c2n1 [Example 19, 7-((2,5-difluorobenzyl)thio)-3H-[1,2,3]triazolo[4,5-b] pyridin-5-amine]	≤ 60 nM
N#Cc1ccc(F)cc1CSc1cc(N)nc2[nH]nnc12 [Example 20, 2-(((5-amino-3H-[1,2,3]triazolo[4,5-b]pyridin-7-yl)thio)methyl)-4-fluorobenzonitrile]	≤ 60 nM
N#Cc1cc(Br)ccc1CSc1cc(N)nc2[nH]nnc12 [Example 21, 2-(((5-amino-3H-[1,2,3]triazolo[4,5-b]pyridin-7-yl)thio)methyl)-5-bromobenzonitrile]	60 to 200 nM

SMILES	IC50
Cc1ccc(-c2nc(CSc3cc(N)nc4[nH]nnc34)c(C)s2)cc1 [Example 22, 7-(((5-methyl-2-(p-tolyl)thiazol-4-yl)methyl)thio)-3H-[1,2,3]triazolo[4,5-b]pyridin-5-amine]	60 to 200 nM
Nc1cc(SCc2c(F)cc(Cl)cc2F)c2nn[nH]c2n1 [Example 23, 7-((4-chloro-2,6-difluorobenzyl)thio)-3H-[1,2,3]triazolo[4,5-b]pyridin-5-amine]	≤ 60 nM
Cc1cc(CSc2cc(N)nc3[nH]nnc23)c(Cl)nc1Cl [Example 24, 7-(((2,6-dichloro-5-methylpyridin-3-yl)methyl)thio)-3H-[1,2,3]triazolo[4,5-b]pyridin-5-amine]	60 to 200 nM
Nc1cc(SCc2cccc(CO)n2)c2nn[nH]c2n1 [Example 25, (6-(((5-amino-3H-[1,2,3]triazolo[4,5-b]pyridin-7-yl)thio)methyl)pyridin-2-yl) methanol]	60 to 200 nM
COC(=O)c1ncccc1CSc1cc(N)nc2[nH]nnc12 [Example 26, methyl 3-(((5-amino-3H-[1,2,3]triazolo[4,5-b]pyridin-7-yl)thio)methyl)picolinate]	200 to 1000 nM
Nc1cccc(CSc2cc(N)nc3[nH]nnc23)n1 [Example 27, 7-(((6-aminopyridin-2-yl)methyl)thio)-3H-[1,2,3] triazolo[4,5-b]pyridin-5-amine]	200 to 1000 nM
Nc1cc(SCc2ccccc2OC(F)(F)F)c2nn[nH]c2n1 [Example 29, 7-((2-(trifluoromethoxy)benzyl)thio)-3H-[1,2,3] triazolo[4,5-b]pyridin-5-amine]	≤ 60 nM
CC(Sc1cc(N)nc2[nH]nnc12)c1ccccc1C(F)(F)F (centres unmarked) [Example 30, 7-((1-(2-(trifluoromethyl)phenyl)ethyl)thio)-3H-[1,2,3]triazolo[4,5-b]pyridin-5-amine]	60 to 200 nM
COC(=O)c1ccc2nc(CSc3cc(N)nc4[nH]nnc34)ccc2c1 [Example 31, methyl 2-(((5-amino-3H-[1,2,3]triazolo[4,5-b]pyridin-7-yl)thio)methyl)quinoline-6-carboxylate]	200 to 1000 nM
Nc1cc(SCc2cnn(Cc3ccccc3)c2)c2nn[nH]c2n1 [Example 32, 7-(((1-benzyl-1H-pyrazol-4-yl)methyl)thio)-3H-[1,2,3] triazolo[4,5-b]pyridin-5-amine]	60 to 200 nM
Cn1nc(-c2ccccc2)cc1CSc1cc(N)nc2[nH]nnc12 [Example 33, 7-(((1-methyl-3-phenyl-1H-pyrazol-5-yl)methyl)thio)-3H-[1,2,3]triazolo[4,5-b] pyridin-5-amine]	60 to 200 nM
Nc1cc(SCc2cn(-c3ccccc3)nn2)c2nn[nH]c2n1 [Example 34, 7-(((1-phenyl-1H-1,2,3-triazol-4-yl)methyl)thio)-3H-[1,2,3]triazolo[4,5-b]pyridin-5-amine]	60 to 200 nM
Nc1cc(SCc2ccccc2CS(=O)(=O)c2ccccc2)c2nn[nH]c2n1 [Example 35, 7-((2-((phenylsulfonyl)methyl)benzyl)thio)-3H-[1,2,3]triazolo[4,5-b]pyridin-5-amine]	60 to 200 nM
CCn1nc(C(F)(F)F)cc1CSc1cc(N)nc2[nH]nnc12 [Example 36, 7-(((1-ethyl-3-(trifluoromethyl)-1H-pyrazol-5-yl)methyl)thio)-3H-[1,2,3]triazolo[4,5-b] pyridin-5-amine]	200 to 1000 nM
Cc1oc(-c2c(F)cc(F)cc2F)nc1CSc1cc(N)nc2[nH]nnc12 [Example 37, 7-(((5-methyl-2-(2,4,6-trifluorophenyl)oxazol-4-yl)methyl)thio)-3H-[1,2,3] triazolo[4,5-b]pyridin-5-amine]	200 to 1000 nM
Nc1cc(SC(c2ccccc2)C(F)(F)F)c2nn[nH]c2n1 (centres unmarked) [Example 38, 7-((2,2,2-trifluoro-1-phenylethyl)thio)-3H-[1,2,3] triazolo[4,5-b]pyridin-5-amine]	200 to 1000 nM

— US10981879B2, “Thioether triazolopyridine and triazolopyrimidine inhibitors of myeloperoxidase” (BRISTOL-MYERS SQUIBB COMPANY, priority 2014, dated 2021)
